Reference: patent US20200262869A1, “PEPTIDE ANTIBIOTIC COMPLEXES AND METHODS OF USE THEREOF” (GENENTECH, INC., priority 2017, published 2020)
In brackets after ≈: the same amount, converted by molar mass. Like-named read-outs stand apart in the source and are kept apart here.

Legend:
[1] = system: A. baumannii ATCC 17978; test: MIC, broth microdilution; type: cell-based; details: Acinetobacter baumannii, ATCC17978, read-out: MIC
Procedure: (§1) Minimum Inhibitory Concentration (MIC). MICs were determined by performing two-fold serial dilutions of compound in Mueller Hinton II cation-adjusted broth to a final volume of 0.1 m1 in round-bottom 96-well assay plates (Corning Life Sciences No 3788). Each well was inoculated with 5×10^5 CFU/ml and incubated at 37° C. without agitation for 18 hours. Plates were scored by eye, and the lowest compound concentration preventing visible growth was determined to be the MIC.

[2] = system: C. werkmanii ATCC 51114; test: MIC, broth microdilution; type: cell-based; details: Citrobacter werkmanii, ATCC51114, read-out: MIC
Procedure: as §1

[3] = system: E. aerogenes ATCC 13408; test: MIC, broth microdilution; type: cell-based; details: Klebsiella aerogenes, ATCC13408, read-out: MIC
Procedure: as §1

[4] = system: E. cloacae ATCC 13407; test: MIC, broth microdilution; type: cell-based; details: Enterobacter cloacae, ATCC13407, read-out: MIC
Procedure: as §1

[5] = system: E. coli ATCC 25922; test: MIC, broth microdilution; type: cell-based
Procedure: as §1

[6] = system: K. pneumoniae ATCC 43816; test: MIC, broth microdilution; type: cell-based
Procedure: as §1

[7] = system: P. aeruginosa ATCC 27853; test: MIC, broth microdilution; type: cell-based; details: Pseudomonas aeruginosa, ATCC27853, read-out: MIC
Procedure: as §1

[8] = system: S. marcescens CDC4385-74; test: MIC, broth microdilution; type: cell-based; details: Serratia marcescens, CDC438574, read-out: MIC
Procedure: as §1

[9] = system: 49 multidrug resistant clinical isolates of E. coli and K. pneumoniae; test: MIC against CDC challenge panel of 49 multidrug resistant clinical isolates; type: cell-based; details: CDC challenge set
Procedure: To better assess the ability of G0775 to circumvent specific resistance mechanisms, a single MDR isolate, CDC 0106, was focused on. […] Chromosomal mutations associated with high level quinolone resistance and polymyxin resistance were also identified (FIGS. 10A-10B). Importantly, the elements encoded by CDC 0106 confer resistance to nearly all available antibiotic classes (Table 2).
as §1

[10] = system: A. baumannii ATCC 17978; test: Frequency of resistance (FOR); type: cell-based; details: G0775 at 8-fold the MIC; limit of detection 10^−10
Procedure: (§2) 20 independent colonies from each bacterial species were scraped and used to establish an overnight culture. Bacteria were concentrated by centrifugation, and approximately 3×10^9 CFUs were spread on cation adjusted Mueller Hinton agarose (MHA) plates containing G0775 at 2- to 8-times the MIC. The MHA plates were prepared from Mueller Hinton II cation adjusted broth (BBL™ 212322) and SeaKem LE Agarose (17 g/L; Lonza) as per manufactures instructions. Resistance frequency for each strain was calculated by dividing the number of colonies formed after a 48 hour incubation at 37° C. by the initial viable cell count.

[11] = system: K. pneumoniae 43816; test: Frequency of resistance (FOR); type: cell-based; details: G0775 at 8-fold the MIC; limit of detection 10^−10
Procedure: as §2

[12] = system: P. aeruginosa PAO1; test: Frequency of resistance (FOR); type: cell-based; details: further 2-fold increase over 8-fold the MIC (16-fold MIC)
Procedure: as §2

[13] = molecular target: T1, full length recombinant LepB from E. coli (Escherichia coli, UniProt P00803); test: LepB kinetic enzyme assay (fluorogenic peptide substrate); type: biochemical
T1 construct: 500 pM full length recombinant LepB from E. coli
Procedure: A 20 μL reaction in PBS (pH 7.4) containing 0.1% Triton X-100 was initiated by adding 500 pM full length recombinant LepB from E. coli to a 384-well polypropylene assay plate (Thermo Scientific) containing indicated concentration of G0775 and 10 uM fluorogenic peptide substrate Dabcyl-DAP-PAKAAE-Edans (SEQ ID NO: 6) (GL Biochem, Boston, Mass.). Substrate cleavage separates the Dabcyl quencher from the Edans fluorophore, resulting in 490 nm fluorescence (340 nm excitation). The reaction was read kinetically using a pherastar plate reader (BMG Labtech), and curves were fit to a 2-step irreversible binding model using Dynafit software (BioKin Ltd.) to determine Kinact/KI binding constants.

[14] = system: A. baumannii 17978; test: Neutropenic thigh infection model in mice; type: in vivo; details: required a higher concentration of antibiotic; subcutaneous BID
Procedure: (§3) CD1 mice (Charles River Laboratories) were rendered neutropenic by 2 intraperitoneal injections of Cytoxan (Baxter Health Care Corporation) at 150 mg/kg on Day -5 and 100 mg/kg on Day -2. On day 0, 50 ul log-phase grown bacteria, K. pneumoniae (ATCC 43816) 1×10^5 CFU/mouse, E. coli (ATCC 25922) 1×10^5 CFU/mouse, P. aeruginosa (ATCC 27853) 1×10^6 CFU/mouse, or A. baumannii (ATCC 17978) 1×10^5 CFU/mouse, were injected into the mouse thigh muscle. At 2 and 11 hours post infection, […] was given at indicated dose subcutaneously. At 20 hours post infection, CFU was determined in the thigh muscle through serial dilutions.

[15] = system: E. coli strain ATCC 25922; test: Neutropenic thigh infection model in mice; type: in vivo; details: 1 mg/kg subcutaneously BID at 2 and 11 h, 20 h post infection
Procedure: as §3

[16] = system: K. pneumoniae strain ATCC 43816; test: Neutropenic thigh infection model in mice; type: in vivo; details: 5 mg/kg subcutaneously BID at 2 and 11 h, 20 h post infection
Procedure: as §3

[17] = system: P. aeruginosa 27853; test: Neutropenic thigh infection model in mice; type: in vivo; details: required a higher concentration of antibiotic; subcutaneous BID
Procedure: as §3

[18] = system: K. pneumoniae (CDC 0106); test: Neutropenic lung infection model in mice; type: in vivo; details: 20 h
Procedure: Balb/c mice (Jackson Laboratories) were rendered neutropenic by 2 intraperitoneal injections of Cytoxan (Baxter Health Care Corporation) at 150 mg/kg on Day −4 and 100 mg/kg on Day −1. On day 0, mice were infected intranasally with 40 ul log-phase grown K. pneumoniae (CDC 0106) at 1×10^6 CFU/mouse. At 2 and 11 hours post infection, G0775 was given at different doses subcutaneously. Ciprofloxacin (Claris Lifesciences Inc.) was dosed at 80 mg/kg subcutaneously once at 2 hour post infection. At 20 hours post infection, CFU was determined in the lung through serial dilutions.

Compound: Cc1nc(-c2ccc(C(C)(C)C)cc2)ncc1C(=O)NC(CCN)C(=O)N(C)C1C(=O)NC(C)C(=O)NC(C(=O)NCC#N)Cc2ccc(OCCN)c(c2)-c2cc1ccc2OCCN (stereo not drawn) [G0775]
- MIC [1]: 1 µg/mL (≈ 1.12 µM)
- MIC [2]: 0.125 µg/mL (≈ 0.14 µM)
- MIC [3]: 0.125 µg/mL (≈ 0.14 µM)
- MIC [4]: 0.25 µg/mL (≈ 0.281 µM)
- potency relative to arylomycin A-C16 ([5]; E. coli, more potent than arylomycin A-C16): > 500 fold
- MIC ([5]; Escherichia coli, ATCC25922, E. coli ATCC 25922, read-out: MIC): 0.125 µg/mL (≈ 0.14 µM)
- potency relative to arylomycin A-C16 ([6]; K. pneumoniae, more potent than arylomycin A-C16): > 500 fold
- MIC ([6]; Klebsiella pneumoniae, ATCC43816, K. pneumoniae ATCC 43816, read-out: MIC): 0.125 µg/mL (≈ 0.14 µM)
- MIC [7]: 4 µg/mL (≈ 4.49 µM)
- MIC [8]: 0.125 µg/mL (≈ 0.14 µM)
- activity against panel of 49 multidrug resistant clinical isolates (MIC) [9]: maintains its potent activity against all 49 isolates
- frequency of resistance (FOR) [10]: below the limit of detection
- frequency of resistance (FOR) [11]: below the limit of detection
- frequency of resistance (FOR) [12]: < 10^−10
- kinact/KI ([13]; full-length LepB embedded in a detergent micelle): 1.59e+06 M⁻¹ s⁻¹
- Ki ([13]; full-length LepB embedded in a detergent micelle, read-out: KI (prechemistry binding)): 0.44 nM
- kinact ([13]; read-out: kinact (irreversible inactivation)): 0.0007 s⁻¹
- kinact ([13]; three independent experiments, read-out: Kinact): 0.0007 ± 0.0002 s⁻¹
- efficacy in neutropenic thigh model [14]: efficacious
- decrease in CFU (bactericidal activity) [15]: > 2 log
- decrease in CFU (bactericidal activity) [16]: > 2 log
- efficacy in neutropenic thigh model [17]: efficacious
- antibacterial activity in lung infection model ([18]; 2 mg/kg subcutaneously BID): bacteriostatic activity
- antibacterial activity in lung infection model ([18]; 20 mg/kg subcutaneously BID): bactericidal activity
